In brackets after ≈: the same amount, converted by molar mass. Several values for one entry are separate records, joined by “and”; a condition that tells them apart may be missing. Equal values may be shown once.

Data set [1] concerns fondaparinux. Nature of the data set: FXa amidolytic assay (Example 10), fondaparinux. To be noted: for EC50: read-out: Fondap FXa EC50, fondaparinux 0.02 μg/mL, human antithrombin, bovine Factor Xa.
Description: (§3) Two μl of test agent are added (range between 0.01 and 23 ug/ml) and incubated for 5 minutes at 23° C. Bovine Factor Xa was added to a final concentration of 0.636 nkat/mL and incubated for a further 10 minutes at 23° C.
A further data set relates to tinzaparin. Nature of the data set: FXa amidolytic assay (Example 10), tinzaparin. To be noted: read-out: Tinzap FXa EC50; tinzaparin 0.1 ug/ml; human antithrombin, bovine Factor Xa.
For another data set, the system named is UFH. Put plainly: FXa amidolytic assay (Example 10), UFH. To be noted: read-out: Heparin FXa uM EC50; UFH 0.03 units/mL; human antithrombin, bovine Factor Xa.
The nature of a further data set: in vitro. It counts as cell-based, human. To be noted: human, pH 7.4. Summed up:
(§1)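 Test agent was serially diluted two-fold over 0.48–1000 µg/ml and incubated for 1 h at 37 °C with shaking, using erythrocytes from pooled human blood diluted in Tris-buffered saline pH 7.4 (0.22% stock). Hemolysis was measured as supernatant absorbance at 405 nm. A four-parameter logistic equation gave EC50, and melittin served as the positive control.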

In data set [2] the test system is isolated human erythrocytes. Nature of the data set: cells. Type of data set: cell-based. To be noted: Homo sapiens, Erythrocyte, 1 h, human RBC, 1 hour at 37° C.; read-out: Hemolysis EC50. Summed up: as §1
For the next data set, the system named is enoxaparin. Nature of the data set: FXa amidolytic assay (Example 10), enoxaparin. To be noted: read-out: Enox FXa EC50; enoxaparin 0.1 ug/ml; human antithrombin, bovine Factor Xa.
The next data set deals with Unfractionated heparin. Put plainly: aPTT clotting assay, UFH 0.4 U/mL in plasma (Example 10). It counts as biochemical. To be noted: unfractionated heparin 0.4 U/mL in plasma; aPTT clotting. As for the experimental part: aPTT clotting Assay: Unfractionated heparin was mixed with plasma at a final concentration of 0.4 U/mL (or concentration which increases aPTT time to between 120 and 300 seconds). […] The ACL Elite Hemostasis analyzer (Beckman Coulter™) was used to add aPTT reagent (HemosIL SynthASil) to supplemented plasma. Clotting was initiated by addition of CaCl2 and time to clot was recorded.

For the next data set, the system named is NIH/3T3 cells. Nature of the data set: Cytotoxicity colorimetric assay, NIH/3T3. To be noted: at the concentration given. It counts as cell-based, mouse. In a few lines: (§2)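 HepG2 cells (3×10^4/well, MEM + 10% FBS) and NIH/3T3 cells (2×10^4/well, DMEM + 10% BCS) were exposed to compound for 1 h in serum-free medium. Viability read by tetrazolium-to-formazan bioreduction after return to serum medium; EC50 from a four-parameter logistic fit.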

A short description of data set [3]: Cytotoxicity colorimetric assay, NIH/3T3. Type of data set: cell-based, mouse. To be noted: mouse, NIH/3T3 cells, one hour in serum-free media. In a few lines: as §2
A short description of data set [4]: Cytotoxicity colorimetric assay, HepG2. Type of data set: cell-based, human. Also noted: Cytotoxicity HepG2, percent printed in parentheses after the concentration: concentration or dose not given beside the values. To be noted: human, HepG2 cells, one hour in serum-free media. Summed up: as §2
A further data set has as its system HepG2 cells. Nature of the data set: Cytotoxicity colorimetric assay, HepG2. The arrangement: Cytotoxicity HepG2, percent printed in parentheses after the concentration: concentration or dose not given beside the values. To be noted: at the concentration given. It counts as cell-based, human. In a few lines: as §2
Another data set deals with blood pressure. Nature of the data set: Hemodynamic responses in the anesthetized rat. It counts as in vivo. To be noted: anesthetized rat, 8 or 16 mg/kg 10 minute IV infusion after heparin 50 U/kg. The text has this:
As a key safety issue for cationic compounds is reduction in blood pressure shortly after administration. To address this hemodynamic issue, a medicinal chemistry strategy with literature precedence of introducing carboxylic acid functionality was applied to the salicylamide series of compounds. […] Surgically prepared animals were purchased from Charles River Laboratories, Raleigh, N.C. Animals were anesthetized on the day of experiment with isoflurane (1.8-4%). Blood pressure and heart rate data were collected on a Grass Polygraph recorder. The test articles, vehicle or protamine dosing preparations were administered once to each rat by a 10 minute intravenous infusion three minutes following a single intravenous injection of heparin (50 U/kg). Each animal received a dose volume of 2.0 mL/kg. Blood pressure was recorded prior to treatment for approximately 1 minute and immediately following heparin, immediately following vehicle, test articles or protamine and at 5, 15, 30, and 60 minutes following dosing. The doses of test agent were either 8 mg/kg or 16 mg/kg. The differences in hemodynamic effect at 16 mg/kg were especially profound (FIG. 5).

The subject of data set [5] is fondaparinux. Nature of the data set: In vivo neutralization of fondaparinux in the rat. As for the experimental part: Compounds were selected to test fondaparinux neutralization in vivo. Rats were pre-treated with fondaparinux administered by IV injection at 0.5 mg/kg. The rats were then treated with a single IV injection of saline, protamine or the PMX compound. Blood was collected via the orbital sinus from three rats per group at the following time points: pre-dose, 1, 3, 10, 30 and 60 min. Plasma samples were prepared for analysis of anti-factor Xa activity using an AMEX Destiny Plus Coagulation Analyzer.

Description for enoxaparin: as §3
Description for tinzaparin: as §3

By EC50 is commonly meant the concentration that produces a half-maximal response. `COc1ccc(NC(=O)[C@H](CCCNC(=N)N)NC(=O)c2cc(NC(=O)[C@H](CCCNC(=N)N)NC(=O)c3cc(NC(=O)[C@H](CCCNC(=N)N)NC(=O)c4cc(NC(C)=O)ccc4OC)ccc3OCC(=O)O)ccc2OC)cc1C(=O)N[C@@H](Cc1c[nH]c2ccccc12)C(N)=O` [Compound 314]: the half-maximal effective concentration (EC50) with fondaparinux [1] is 265 nM; in the data set with tinzaparin, 199 nM; with UFH, 0.295 µM; in [2], 1000 µg/mL (≈ 738 µM); in the data set on enoxaparin, 208 nM; in the data set on Unfractionated heparin it was greater than 10000 nM. Further, the hemolysis at 1 h in “in vitro” stood at 25%.
As for `COc1ccc(NC(=O)[C@H](CCCNC(=N)N)NC(=O)c2cc(NC(=O)[C@H](CCCNC(=N)N)NC(=O)c3cc(NC(=O)[C@H](CCCNC(=N)N)NC(=O)c4cc(NC(=O)[C@@H](N)CCCNC(=N)N)ccc4OC)ccc3OC)ccc2OC)cc1C(=O)NCC(=O)O` [Compound 284], the EC50 in the data set with fondaparinux [1] is 390 nM; with tinzaparin, 138 nM; in data set [2] it was 1000 µg/mL (≈ 771 µM); with enoxaparin it was 144 nM; in the data set on Unfractionated heparin, 1560 nM. In the data set “in vitro”, this compound yielded a hemolysis at 1 h of 50%.
As for `COc1ccc(NC(=O)[C@@H](CCCNC(=N)N)NC(=O)c2cc(NC(=O)[C@@H](CCCNC(=N)N)NC(=O)c3cc(NC(=O)[C@@H](CCCNC(=N)N)NC(=O)c4cc(NC(=O)[C@H](N)Cc5c[nH]c6ccccc56)ccc4OC)ccc3OC)ccc2OC)cc1C(=O)N[C@H](Cc1c[nH]c2ccccc12)C(=O)O` [Compound 331], the EC50 in the data set on fondaparinux [1] was 161 nM; with tinzaparin it was 184 nM; in [2], roughly 100 µg/mL (≈ 68.7 µM); in the data set with enoxaparin, 155 nM; in the data set with Unfractionated heparin it was greater than 10000 nM. In “in vitro”, the hemolysis at 1 h worked out at 50%.
For `COc1ccc(NC(=O)[C@H](CCCNC(=N)N)NC(=O)c2cc(NC(=O)[C@H](CCCNC(=N)N)NC(=O)c3cc(NC(=O)[C@H](CCCNC(=N)N)NC(=O)c4cc(NC(=O)[C@@H](N)CCCNC(=N)N)ccc4OC)ccc3OC)ccc2OC)cc1C(=O)N[C@@H](Cc1c[nH]c2ccccc12)C(=O)O` [Compound 309], the concentration for a half-maximal effect (EC50) was 120 nM with fondaparinux [1]; 137 nM in the data set on tinzaparin; 0.301 µM with UFH; roughly 100 µg/mL (≈ 70.1 µM) in [2]; 131 nM in the data set on enoxaparin; 2270 nM in the data set on Unfractionated heparin. In the data set with NIH/3T3 cells, the “Cytotoxicity 3T3, percent printed in parentheses after the concentration” value was found to be 50%. The EC50 at 1 h in data set [3] and in data set [4] was 1000 µg/mL (≈ 701 µM) each time. Moreover, the “Cytotoxicity HepG2, percent printed in parentheses after the concentration” value with HepG2 cells was determined as 50%.
As to `COc1ccc(NC(=O)[C@H](CCCCN)NC(=O)c2cc(NC(=O)[C@H](CCCCN)NC(=O)c3cc(NC(=O)[C@H](CCCCN)NC(=O)c4cc(NC(=O)[C@@H](N)CCCCN)ccc4OC)ccc3OC)ccc2OC)cc1C(=O)NCCC(=O)O` [Compound 261], the EC50 in the data set on fondaparinux [1] is 5980 nM and 6260 nM; with tinzaparin, 232 nM and 214 nM; in the data set with enoxaparin, 344 nM and 294 nM; in the data set with Unfractionated heparin, 1530 nM and 2150 nM. The EC50 at 1 h in data set [3] and in data set [4] was greater than 1000 µg/mL each time. Moreover, in the data set with blood pressure, the hemodynamic response profile entry is given as “did not show an improved hemodynamic effect profile”.
With `COc1ccc(NC(=O)[C@H](CCCNC(=N)N)NC(=O)c2cc(NC(=O)[C@H](CCCNC(=N)N)NC(=O)c3cc(NC(=O)[C@H](CCCNC(=N)N)NC(=O)c4cc(NC(C)=O)ccc4OC)ccc3OC)ccc2OCC(=O)O)cc1C(=O)N[C@@H](Cc1c[nH]c2ccccc12)C(N)=O` [Compound 312], the EC50 in the data set with fondaparinux [1] was 120 nM; in the data set with tinzaparin, 169 nM; with UFH it was 0.295 µM; in data set [2], 1000 µg/mL (≈ 738 µM); in the data set on enoxaparin, 152 nM; with Unfractionated heparin it was greater than 10000 nM. In “in vitro”, the hemolysis at 1 h worked out at 25%.
`COc1ccc(NC(=O)[C@H](CCCCN)NC(=O)c2cc(NC(=O)[C@H](CCCCN)NC(=O)c3cc(NC(=O)[C@H](CCCCN)NC(=O)c4cc(NC(=O)[C@@H](N)Cc5c[nH]c6ccccc56)ccc4OC)ccc3OC)ccc2OC)cc1C(=O)N[C@@H](Cc1c[nH]c2ccccc12)C(=O)O` [Compound 330]: the EC50 in the data set on fondaparinux [1] was 218 nM; in the data set with tinzaparin it was 182 nM; in data set [2], 5.4 µg/mL (≈ 3.94 µM); in the data set with enoxaparin, 169 nM; in the data set with Unfractionated heparin it was greater than 10000 nM. The hemolysis at 1 h in the data set “in vitro” turned out to be 75%.
For `COc1cc(OC)c(C(=O)N[C@H]2CC[C@H](NC(=O)c3ccc(OCCCCCNC(=N)N)cc3OCCCCCNC(=N)N)CC2)cc1C(=O)N[C@H]1CC[C@H](NC(=O)c2ccc(OCCCCCNC(=N)N)cc2OCCCCCNC(=N)N)CC1` [Compound 336], the “reduction of Factor Xa (anti-factor Xa) levels after fondaparinux” value in the data set with fondaparinux [5] (fondaparinux 0.5 mg/kg IV, test agent 2 and 5 mg/kg IV) is “significant reductions in anti-Factor Xa activity”. Also, the “in vivo efficacy versus fondaparinux (summary)” value in the data set with fondaparinux [5] (in vivo) is recorded as “in vivo efficacy versus fondaparinux”. For the same compound, the “Potent LMWH-antagonists with superior anti-fondaparinux activity (summary)” value in the data set on fondaparinux [1] was “superior anti-fondaparinux activity”. Besides, the EC50 was 91 nM and 63 nM in the data set on fondaparinux [1]; 133 nM and 84 nM with tinzaparin; greater than 1000 µg/mL in data set [2]; 79 nM and 91 nM with enoxaparin; 1430 nM and 1220 nM in the data set on Unfractionated heparin. The EC50 at 1 h was found to be 390 µg/mL (≈ 325 µM) in data set [3] and 505 µg/mL (≈ 421 µM) in data set [4].
Regarding `COc1ccc(NC(=O)[C@@H](CCCNC(=N)N)NC(=O)c2cc(NC(=O)[C@@H](CCCNC(=N)N)NC(=O)c3cc(NC(=O)[C@@H](CCCNC(=N)N)NC(=O)c4cc(NC(=O)[C@H](N)CCC(=O)O)ccc4OC)ccc3OC)ccc2OC)cc1C(N)=O` [Compound 322], the EC50 is 417 nM in the data set with fondaparinux [1]; 158 nM in the data set on tinzaparin; 1000 µg/mL (≈ 826 µM) in data set [2]; 195 nM in the data set on enoxaparin; 2110 nM with Unfractionated heparin. In “in vitro”, this compound came in with a hemolysis at 1 h of 50%.
Consider `COc1ccc(NC(=O)[C@@H](CCCNC(=N)N)NC(=O)c2cc(NC(=O)[C@@H](CCCNC(=N)N)NC(=O)c3cc(NC(=O)[C@@H](CCCNC(=N)N)NC(=O)c4cc(NC(=O)[C@H](N)Cc5c[nH]c6ccccc56)ccc4OC)ccc3OC)ccc2OCC(=O)O)cc1C(N)=O` [Compound 329], for which the EC50 in the data set with fondaparinux [1] worked out at 371 nM; with tinzaparin, 203 nM; in data set [2], 18 µg/mL (≈ 13.7 µM); in the data set on enoxaparin, 202 nM; with Unfractionated heparin, 7910 nM. The compound further had a hemolysis at 1 h in “in vitro” of 50%.
With `COC(=O)c1cccc(C(=O)N[C@@H](CCCCN)C(=O)Nc2ccc(OC)c(C(=O)N[C@@H](CCCCN)C(=O)Nc3ccc(OC)c(C(=O)N[C@@H](CCCCN)C(=O)Nc4ccc(OC)c(C(=O)N[C@@H](CCCCN)C(=O)Nc5ccc(OC)c(C(N)=O)c5)c4)c3)c2)c1` [Compound 340], the EC50 with fondaparinux [1] came to 208 nM; in the data set with tinzaparin it was 115 nM; with UFH, 0.292 µM; in the data set with enoxaparin it was 119 nM; in the data set with Unfractionated heparin, 720 nM. Moreover, the “Cytotoxicity 3T3, percent printed in parentheses after the concentration” value with NIH/3T3 cells was 60%. Further, the EC50 at 1 h in data set [3] and in data set [4] was 1000 µg/mL (≈ 776 µM) throughout. The “Cytotoxicity HepG2, percent printed in parentheses after the concentration” value with HepG2 cells was 60%.
